Results from BigSolDB 2.1.

Compound: CCOc1ccccc1C(N)=O
- solubility (mole fraction) (in acetonitrile, 293.15 K): 0.00709
- solubility (mole fraction) (in acetonitrile, 298.15 K): 0.0091
- solubility (mole fraction) (in acetonitrile, 303.15 K): 0.0123
- solubility (mole fraction) (in acetonitrile, 308.15 K): 0.0167
- solubility (mole fraction) (in acetonitrile, 313.15 K): 0.022
- solubility (mole fraction) (in acetonitrile, 318.15 K): 0.0285
- solubility (mole fraction) (in acetonitrile, 323.15 K): 0.0377
- solubility (mole fraction) (in ethanol, 293.15 K): 0.0121
- solubility (mole fraction) (in ethanol, 298.15 K): 0.0162
- solubility (mole fraction) (in ethanol, 303.15 K): 0.0198
- solubility (mole fraction) (in ethanol, 308.15 K): 0.0252
- solubility (mole fraction) (in ethanol, 313.15 K): 0.0313
- solubility (mole fraction) (in ethanol, 318.15 K): 0.0392
- solubility (mole fraction) (in ethanol, 323.15 K): 0.0472
- solubility (mole fraction) (in isopropanol, 293.15 K): 0.0097
- solubility (mole fraction) (in isopropanol, 298.15 K): 0.0125
- solubility (mole fraction) (in isopropanol, 303.15 K): 0.0155
- solubility (mole fraction) (in isopropanol, 308.15 K): 0.0189
- solubility (mole fraction) (in isopropanol, 313.15 K): 0.024
- solubility (mole fraction) (in isopropanol, 318.15 K): 0.0304
- solubility (mole fraction) (in isopropanol, 323.15 K): 0.0391
- solubility (mole fraction) (in methanol, 293.15 K): 0.016
- solubility (mole fraction) (in methanol, 298.15 K): 0.02
- solubility (mole fraction) (in methanol, 303.15 K): 0.0252
- solubility (mole fraction) (in methanol, 308.15 K): 0.0306
- solubility (mole fraction) (in methanol, 313.15 K): 0.0392
- solubility (mole fraction) (in methanol, 318.15 K): 0.0484
- solubility (mole fraction) (in methanol, 323.15 K): 0.0596
